# Source: patent US10494380B2, “Nitrogen-containing tricyclic derivatives having HIV replication inhibitory activity” (priority 2015, dated 2019)
# Where two headings read alike, the source gives them in different places.
# Tests used:
# [1] = tested on: T125A mutant virus (HIV-1 NL-432 recombinant molecular clone, IN gene); test: HIV replication inhibition assay against integrase 124/125 mutant virus (Test Example 2); type: cell-based
# Procedure, shortened: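 MT-4 cells (2.5×10^4 per well) infected with 60 pfu of 293T-derived HIV-1 NL-432 clone carrying integrase 124/125 point mutations, in presence of compound, cultured 4 days at 37 °C. Viability by MTT formazan at 560/690 nm; EC50 = concentration inhibiting 50% of virus-induced cytotoxicity.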
# HIV = type: cell-based; conditions: EC50 in the presence of human serum (25%) versus without human serum, MT-4 cells
# Description: To confirm the influence of human serum on anti-HIV activity as necessary, human serum was added and determined EC50 in this condition. Human serum (100 μL/well) was dispensed into each anti-HIV active substance at a designated concentration dispensed 50 μL each in advance into a 96-well microtiter plate, and the plate was incubate at room temperature for 1 hour. To the serum-free plate, only culture medium (100 μL/well) was dispensed into 96-well microtiter plate. MT-4 cells (3×10^4 cells/well) was infected with 3 μL/well of HIV solution diluted to an appropriate concentration (600 pfu/50 μL) by the required number of wells and incubated at 37° C. for 1 hour. The infected cells were centrifuged at 1200 rpm for 5 minutes, the supernatant was discarded, and the infected cells were dispersed into culture medium for the required number of wells at 50 μL/well. Infected cell suspension was dispensed into a 96-well microtiter plate of which anti-HIV active substance and human serum prepared in advance. The cell mixture was mixed with a plate mixer and cultured in a CO2 incubator for 4 days. The EC50 in the presence of human serum was calculated in the same manner as in Test Example 1 and the ratio of EC50 in the presence of human serum and EC50 in the absence of human serum was calculated as the potency shift value. […]
# [2] = Human immunodeficiency virus 1, MT4, read-out: EC50 against T125A mutant virus, T125A mutant virus (HIV-1 NL-432 IN gene), MT-4 cells, MTT
# [3] = read-out: EC50 against T125A mutant virus, T125A mutant virus (HIV-1 NL-432 IN gene), MT-4 cells, MTT
SMILES,"EC50 [1, 2]",Potency shift value (HIV),"EC50 [1, 3]"
COc1cncc(N2CCn3c(C)cc4c(-c5ccc(C)cc5)c([C@H](OC(C)(C)C)C(=O)O)c(C)c2c43)n1 [Compound I-274],14 nM,16,
COc1cnc(N2CCn3c(C)cc4c(-c5ccc(C)cc5)c([C@H](OC(C)(C)C)C(=O)O)c(C)c2c43)cn1 [Compound I-275],13 nM,18,
Cc1ccc(-c2c([C@H](OC(C)(C)C)C(=O)O)c(C)c3c4c2cc(C)n4CCN3c2ncc(OC3COC3)cn2)cc1 [Compound I-280],5.3 nM,21,
Cc1ccc(-c2c([C@H](OC(C)(C)C)C(=O)O)c(C)c3c4c2cc(C)n4CCN3CC(F)F)cc1 [Compound I-281],17 nM,23,
Cc1ccc(-c2c([C@H](OC(C)(C)C)C(=O)O)c(C)c3c4c2cc(C)n4CCN3c2ncc(OCCO)cn2)cc1 [Compound I-283],12 nM,9.5,
Cc1ccc(-c2c([C@H](OC(C)(C)C)C(=O)O)c(C)c3c4c2cc(C)n4CCN3c2ncc(OCCCO)cn2)cc1 [Compound I-284],3.6 nM,17,
Cc1ccc(-c2c([C@H](OC(C)(C)C)C(=O)O)c(C)c3c4c2cc(C)n4CCN3c2cccc(F)n2)cc1 [Compound I-286],15 nM,14,
Cc1ccc(-c2c([C@H](OC(C)(C)C)C(=O)O)c(C)c3c4c2cc(C)n4CCN3c2ccc(N3CCCC3=O)cn2)cc1 [Compound I-288],5.3 nM,11,
Cc1ccc(-c2c([C@H](OC(C)(C)C)C(=O)O)c(C)c3c4c2cc(C)n4CCN3c2ccc3ncccc3n2)cc1 [Compound I-289],35 nM,15,
CC(=O)NCCOc1cnc(N2CCn3c(C)cc4c(-c5ccc(C)cc5)c([C@H](OC(C)(C)C)C(=O)O)c(C)c2c43)nc1 [Compound I-295],62 nM,5.3,
C=Cc1cnc(N2CCn3c(C)cc4c(-c5ccc(Cl)cc5)c([C@H](OC(C)(C)C)C(=O)O)c(C)c2c43)nc1 [Compound I-299],5.1 nM,20,
Cc1c(-c2c([C@H](OC(C)(C)C)C(=O)O)c(C)c3c4c2cc(C)n4CCN3CCN(C)C)cc(F)c2c1CCCO2 [Compound I-310],68 nM,1.2,
Cc1c([C@H](OC(C)(C)C)C(=O)O)c(-c2ccc(Cl)cc2)c2cc(C)n3c2c1N(c1ncc(C2CCOCC2)cn1)CC3 [Compound I-311],3.1 nM,15,
COCc1cnc(N2CCn3c(C)cc4c(-c5ccc(Cl)cc5)c([C@H](OC(C)(C)C)C(=O)O)c(C)c2c43)nc1 [Compound I-312],4.6 nM,37,
Cc1c([C@H](OC(C)(C)C)C(=O)O)c(-c2ccc(Cl)cc2)c2cc(C)n3c2c1N(c1ncc(CN(C)C)cn1)CC3 [Compound I-313],8.8 nM,7.7,
CCOCc1cnc(N2CCn3c(C)cc4c(-c5ccc(Cl)cc5)c([C@H](OC(C)(C)C)C(=O)O)c(C)c2c43)nc1 [Compound I-314],5.3 nM,41,
Cc1c([C@H](OC(C)(C)C)C(=O)O)c(-c2ccc(Cl)cc2)c2cc(C)n3c2c1N(c1ncc(COCCN(C)C)cn1)CC3 [Compound I-315],80 nM,3.9,
Cc1ccc(-c2c([C@H](OC(C)(C)C)C(=O)O)c(C)c3c4c2cc(C)n4CCN3c2ncc(N3C[C@@H](C)O[C@@H](C)C3)cn2)cc1 [Compound I-316],6.6 nM,17,
Cc1c([C@H](OC(C)(C)C)C(=O)O)c(-c2cc3ccccc3s2)c2cc(C)n3c2c1N(CCN(C)C)CC3 [Compound I-319],87 nM,3.4,
Cc1c([C@H](OC(C)(C)C)C(=O)O)c(C2=CCC(C)(C)CC2)c2cc(C)n3c2c1N(CCN(C)C)CC3 [Compound I-320],16 nM,2.6,
COc1cnc(N2c3c(C)c([C@H](OC(C)(C)C)C(=O)O)c(-c4ccc(Cl)cc4)c4cc(C)n(c34)C3CN(C(=O)c4ccccc4)CC32)nc1 (stereo partly shown) [Compound I-322],44 nM,15,

SMILES,"EC50 [1, 2]",Potency shift value (HIV),"EC50 [1, 3]"
COc1ccc(N2CCn3c(C)cc4c(-c5ccc(C)cc5)c([C@H](OC(C)(C)C)C(=O)O)c(C)c2c43)nn1 [Compound I-328],51 nM,4.2,
Cc1ccc(-c2c([C@H](OC(C)(C)C)C(=O)O)c(C)c3c4c2cc(C)n4CCN3c2nc(C)ns2)cc1 [Compound I-329],19 nM,15,
Cc1ccc(-c2c([C@H](OC(C)(C)C)C(=O)O)c(C)c3c4c2cc(C)n4CCN3c2ncc(Oc3ncccn3)cn2)cc1 [Compound I-330],7.7 nM,39,
Cc1c([C@H](OC(C)(C)C)C(=O)O)c(-c2ccc(Cl)cc2)c2cc(C)n3c2c1N(C)CC3c1ccccc1 (stereo partly shown) [Compound I-331],,7,92 nM
Cc1c([C@H](OC(C)(C)C)C(=O)O)c(-c2ccc(Cl)cc2)c2cc(C)n3c2c1N(C)CC3c1ccccc1 (stereo partly shown) [Compound I-332],,25,13 nM
Cc1ccc(-c2c([C@H](OC(C)(C)C)C(=O)O)c(C)c3c4c2cc(C)n4CCN3c2ncc(CCO)cn2)cc1 [Compound I-335],14 nM,36,
Cc1ccc(-c2c([C@H](OC(C)(C)C)C(=O)O)c(C)c3c4c2cc(C)n4CCN3c2ncc(CCN(C)C)cn2)cc1 [Compound I-337],28 nM,3.6,
Cc1ccc(-c2c([C@H](OC(C)(C)C)C(=O)O)c(C)c3c4c2cc(C)n4CCN3c2ncc(Oc3ccc4ccccc4n3)cn2)cc1 [Compound I-338],21 nM,18,
Cc1ccc(-c2c([C@H](OC(C)(C)C)C(=O)O)c(C)c3c4c2cc(C)n4CCN3c2ncc(Oc3ccnc4ccccc34)cn2)cc1 [Compound I-340],15 nM,18,
Cc1ccc(-c2c([C@H](OC(C)(C)C)C(=O)O)c(C)c3c4c2cc(C)n4CCN3c2ncc(Oc3nc(C)nc4ccccc34)cn2)cc1 [Compound I-343],21 nM,11,
Cc1ccc(-c2c([C@H](OC(C)(C)C)C(=O)O)c(C)c3c4c2cc(C)n4CCN3c2ncc(Oc3nccc4ccccc34)cn2)cc1 [Compound I-344],17 nM,33,
Cc1ccc(-c2c([C@H](OC(C)(C)C)C(=O)O)c(C)c3c4c2cc(C)n4CCN3c2ncc(Oc3nc4ccccc4o3)cn2)cc1 [Compound I-345],38 nM,41,
Cc1ccc(-c2c([C@H](OC(C)(C)C)C(=O)O)c(C)c3c4c2cc(C)n4CCN3c2ncc(CN3CCCC3)cn2)cc1 [Compound I-347],10 nM,7.4,
Cc1ccc(-c2c([C@H](OC(C)(C)C)C(=O)O)c(C)c3c4c2cc(C)n4CCN3c2ncc(CN3CCOCC3)cn2)cc1 [Compound I-348],5 nM,21,
Cc1ccc(-c2c([C@H](OC(C)(C)C)C(=O)O)c(C)c3c4c2cc(C)n4CCN3c2ncc(CN3CCN(C)CC3)cn2)cc1 [Compound I-349],30 nM,3.6,
Cc1ccc(-c2c([C@H](OC(C)(C)C)C(=O)O)c(Cl)c3c4c2cc(C)n4CCN3c2ncc(OCCN(C)C)cn2)cc1 [Compound I-350],22 nM,4.3,
Cc1ccc(-c2c([C@H](OC(C)(C)C)C(=O)O)c(C)c3c4c2cc(C)n4CCN3c2ncc(CCN3CCN(C)CC3)cn2)cc1 [Compound I-351],17 nM,5.5,
Cc1ccc(-c2c([C@H](OC(C)(C)C)C(=O)O)c(Cl)c3c4c2cc(C)n4CCN3c2nc3c(s2)CCN(C)C3)cc1 [Compound I-352],14 nM,10,
Cc1ccc(-c2c([C@H](OC(C)(C)C)C(=O)O)c(Cl)c3c4c2cc(C)n4CCN3c2nc3c(s2)CN(C)CC3)cc1 [Compound I-353],15 nM,10,
Cc1ccc(-c2c([C@H](OC(C)(C)C)C(=O)O)c(Cl)c3c4c2cc(C)n4CCN3c2ccc(C)nn2)cc1 [Compound I-354],5.3 nM,27,
